Results as given in patent US11267823B2, “Substituted 1,2,3,3a,4,5,7,9,13,13a-decahydropyrido[1′,2′:4,5]pyrazino[1,2-a]pyrrolo[1,2-c]pyrimidines having HIV integrase inhibitory activity” (Shionogi & Co., Ltd., priority 2005, dated 2022).

The compounds below were run on VSV-g pseudotyped HIV vector that expresses luciferase (PHIV) (assay: microbe, parasite or virus in culture). Settings: Human immunodeficiency virus 1, HEK-293T, 48 h, read-out: PHIV IC50.
Format: cell-based

Compound | IC50
CSCC[C@H]1CO[C@@H]2Cn3cc(C(=O)NCc4ccc(F)cc4F)c(=O)c(O)c3C(=O)N12 [Example Z-26, (2S,11aR)—N-[(2,4-Difluorophenyl)methyl]-6-hydroxy-3-[2-(methylthio)ethyl]-5,7-dioxo-2,3,5,7,11,11a-hexahydro[1,3]oxazolo[3,2-a]pyrido[1,2-d]pyrazine-8-carboxamide] | < 10 nM
CS(=O)(=O)CC[C@H]1CO[C@@H]2Cn3cc(C(=O)NCc4ccc(F)cc4F)c(=O)c(O)c3C(=O)N12 [Example Z-27, (3S,11aR)—N-[(2,4-Difluorophenyl)methyl]-6-hydroxy-3-[2-(methylsulfonyl)ethyl]-5,7-dioxo-2,3,5,7,11,11a-hexahydro[1,3]oxazolo[3,2-a]pyrido[1,2-d]pyrazine-8-carboxamide] | > 100 nM
O=C(NCc1ccc(F)cc1F)c1cn2c(c(O)c1=O)C(=O)N1[C@@H](Cc3c[nH]c4ccccc34)CO[C@@H]1C2 [Example Z-28, (3S,11aR)—N-[(2,4-Difluorophenyl)methyl]-6-hydroxy-3-(1H-indo-3-ylmethyl)-5,7-dioxo-2,3,5,7,11,11a-hexahydro[1,3]oxazolo[3,2-a]pyrido[1,2-d]pyrazine-8-carboxamide] | < 10 nM
CC(C)CN1CC[C@@H](C)N2C(=O)c3c(O)c(=O)c(C(=O)NCc4ccc(F)cc4)cn3C[C@H]12 [Example Z-29, (4R,12aR)—N-[(4-fluorophenyl)methyl]-7-hydroxy-4-methyl-1-(2-methylpropyl)-6,8-dioxo-6-[(phenylmethyl)oxy]-1,2,3,4,6,8,12,12a-octahydropyrido[1′,2′:4,5]pyrazino[1,2-a]pyrimidine-9-carboxamide] | < 10 nM
CC(C)N1CC[C@@H](C)N2C(=O)c3c(O)c(=O)c(C(=O)NCc4ccc(F)cc4)cn3C[C@H]12 [Example Z-30, (4R,12aR)—N-[(4-Fluorophenyl)methyl]-7-hydroxy-4-methyl-1-(1-methylethyl)-6,8-dioxo-1,2,3,4,6,8,12,12a-octahydropyrido[1′,2′:4,5]pyrazino[1,2-a]pyrimidine-9-carboxamide] | < 10 nM
CC(C)CN1CC[C@H](C)N2C(=O)c3c(O)c(=O)c(C(=O)NCc4ccc(F)cc4F)cn3C[C@@H]12 [Example Z-31, (4S,12aS)—N-[(2,4-Difluorophenyl)methyl]-7-hydroxy-4-methyl-1-(2-methylpropyl)-6,8-dioxo-1,2,3,4,6,8,12,12a-octahydropyrido[1′,2′:4,5]pyrazino[1,2-a]pyrimidine-9-carboxamide] | < 10 nM
C[C@H]1CCN(CC2CC2)[C@@H]2Cn3cc(C(=O)NCc4ccc(F)cc4F)c(=O)c(O)c3C(=O)N12 [Example Z-32, (4S,12aS)-1-(Cyclopropylmethyl)-N-[(2,4-difluorophenyl)methyl]-7-hydroxy-4-methyl-7-hydroxy-4-methyl-6,8-dioxo-1,2,3,4,6,8,12,12a-octahydropyrido[1′,2′:4,5]pyrazino[1,2-a]pyrimidine-9-carboxamide] | < 10 nM
C[C@H]1CCN(Cc2ccco2)[C@@H]2Cn3cc(C(=O)NCc4ccc(F)cc4F)c(=O)c(O)c3C(=O)N12 [Example Z-33, (4S,12aS)—N-[(2,4-Difluorophenyl)methyl]-1-(1-furanylmethyl)-7-hydroxy-4-methyl-6,8-dioxo-1,2,3,4,6,8,12,12a-octahydropyrido[1′,2′:4,5]pyrazino[1,2-a]pyrimidine-9-carboxamide] | < 10 nM
C[C@H]1CCN(Cc2nccs2)[C@@H]2Cn3cc(C(=O)NCc4ccc(F)cc4F)c(=O)c(O)c3C(=O)N12 [Example Z-34, (4S,12aS)—N-[(2,4-Difluorophenyl)methyl]-7-hydroxy-4-methyl-6,8-dioxo-1-(1,3-thiazol-2-ylmethyl)-1,2,3,4,6,8,12,12a-octahydropyrido[1′,2′:4,5]pyrazino[1,2-a]pyrimidine-9-carboxamide] | < 10 nM
O=C(NCc1ccc(F)cc1F)c1cn2c(c(O)c1=O)C(=O)N1[C@H](C2)N[C@H]2CCCC[C@@H]21 [Example Z-39, (6aR,7aS,11aS)—N-[(2,4-Difluorophenyl)methyl]-1-hydroxy-2,13-dioxo-2,6a,7,7a,8,9,10,11,11a,13-decahydro-6H-pyrido[1′,2′:4,5]pyrazino[1,2-a]benzimidazole-3-carboxamide] | < 10 nM
O=C(NCc1ccc(F)cc1F)c1cn2c(c(O)c1=O)C(=O)N1[C@@H](C2)N[C@H]2CCCC[C@@H]21 [Example Z-40, (6aS,7S,11aS)—N-[(2,4-Difluorophenyl)methyl]-1-hydroxy-2,13-dioxo-2,6a,7,7a,8,9,10,11,11a,13-decahydro-6H-pyrido[1′,2′:4,5]pyrazino[1,2-a]benzimidazole-3-carboxamide] | < 10 nM
O=C(NCc1ccc(F)cc1F)c1cn2c(c(O)c1=O)C(=O)N1C[C@@H]3CCCCN3[C@@H]1C2 [Example Z-41, (5aS,14aS)—N-[(2,4-Difluorophenyl)methyl]-11-hydroxy-10,12-dioxo-1,2,3,4,5a,6,10,12,14,14a-decahydropyrido[1,2-a]pyrido[1′,2′:4,5]imidazo[1,2-d]pyrazine-9-carboxamide] | < 10 nM
O=C(NCc1ccc(F)cc1F)c1cn2c(c(O)c1=O)C(=O)N1CC[C@H]3CCCCN3[C@H]1C2 [Example Z-42, (4aR,14aR)—N-[(2,4-Difluorophenyl)methyl]-9-hydroxy-8,10-dioxo-2,3,4,4a,5,6,8,10,14,14a-decahydro-1H-pyrido[1,2-c]pyrido[1′,2′:4,5]pyrazino[1,2-a]pyrimidine-11-carboxamide] | < 10 nM
CC(C)CCN1CC[C@@H](C)N2C(=O)c3c(O)c(=O)c(C(=O)NCc4ccc(F)cc4F)cn3C[C@H]12 [Example Z-43] | < 10 nM
CC(C)N1CC[C@H](C)N2C(=O)c3c(O)c(=O)c(C(=O)NCc4ccc(F)cc4F)cn3C[C@@H]12 [Example Z-44, (4S,12aS)—N-[(2,4-Difluorophenyl)methyl]-7-hydroxy-4-methyl-1-(1-methylethyl)-6,8-dioxo-1,2,3,4,6,8,12,12a-octahydropyrido[1′,2′:4,5]pyrazino[1,2-a]pyrimidine-9-carboxamide] | < 10 nM
CC(C)CCN1CC[C@H](C)N2C(=O)c3c(O)c(=O)c(C(=O)NCc4ccc(F)cc4F)cn3C[C@@H]12 [Example Z-45, (4S,12aS)—N-[(2,4-Difluorophenyl)methyl]-7-hydroxy-4-methyl-1-(3-methylbutyl)-6,8-dioxo-1,2,3,4,6,8,12,12a-octahydropyrido[1′,2′:4,5]pyrazino[1,2-a]pyrimidine-9-carboxamide] | < 10 nM
C[C@H]1CCN(Cc2cccnc2)[C@@H]2Cn3cc(C(=O)NCc4ccc(F)cc4F)c(=O)c(O)c3C(=O)N12 [Example Z-46, (4S,12aS)—N-[(2,4-Difluorophenyl)methyl]-7-hydroxy-4-methyl-6,8-dioxo-1-(3-pyridinylmethyl)-1,2,3,4,6,8,12,12a-octahydropyrido[1′,2′:4,5]pyrazino[1,2-a]-pyrimidine-9-carboxamide] | < 10 nM
C[C@H]1CCN(C2CC2)[C@@H]2Cn3cc(C(=O)NCc4ccc(F)cc4F)c(=O)c(O)c3C(=O)N12 [Example Z-47, (4S,12aS)-1-Cyclopropyl-N-[(2,4-difluorophenyl)methyl]-7-hydroxy-4-methyl-6,8-dioxo-1,2,3,4,6,8,12,12a-octahydropyrido[1′,2′:4,5]pyrazino[1,2-a]pyrimidine-9-carboxamide] | < 10 nM
